Assay type in all cases: physicochemical
Data set [1] in a line: Hygroscopicity test: standing 3 days in desiccator at 30° C. and 93% humidity, moisture content by the Karl-Fischer method. The settings on record: for Moisture content after standing / Moisture content before standing: Karl-Fischer method; for Moisture content after standing: after standing 3 days at 30° C., humidity 93% (saturated potassium nitrate desiccator); for Moisture content before standing: before standing at 30° C.; for Moisture content before standing / Δ Moisture content: humidity 93%; for Δ Moisture content: after minus before standing 3 days at 30° C. Here is the method:
A hydrate crystal of 3′,3′-cGAMP according to the invention may be either a crystal of alkali metal salt or a crystal of free acid. Either is less hygroscopic than existing powder. Thus, each is easy to handle in various purposes and is thus useful as a pharmaceutical raw material or the like. Note that the wording “less hygroscopic” herein refers to the case where after (A) allowed to stand for 1 day under conditions at a temperature of 30° C. and a humidity of 43% and then (B) allowed to stand for 3 days under conditions at a temperature of 30° C. and a humidity of 93%, a substance of interest has a moisture content of 25% or less at the end point (B) and the difference in the moisture content between the end point (A) and the end point (B) is within ±5%.
The crystals obtained in the above Examples 1 and 2 as well as the lyophilized product obtained in the Reference Example were allowed to stand for 3 days in a desiccator filled with a saturated potassium nitrate solution and kept at a temperature of 30° C. and a humidity of 93%. The moisture content was compared between before and after the standing by the Karl-Fischer method.

The nature of data set [2]: Stability test, crystals stored at 60° C. Here is the method: Meanwhile, the crystals were stored at 60° C. and subjected to a stability test.
The nature of data set [3]: Crystal moisture content by the Karl-Fischer method. The settings on record: for Moisture content after storage at a humidity of 43% for 1 day: stored at humidity 43% for 1 day. Here is the method:
In Example 1, the crystals of 3′,3′-cGAMP sodium salt were prepared. Here, the crystal moisture content immediately after drying was measured by the Karl-Fischer method. As a result, the moisture content was 7.9%. […] In addition, the crystals were stored at a humidity of 43% for 1 day so as to stabilize their moisture content. The moisture content was likewise measured.
The crystals of 3′,3′-cGAMP free acid as prepared in Example 2 were stored at a humidity of 43% for 1 day so as to stabilize their moisture content. Then, the crystal moisture content was measured by the Karl-Fischer method.

As to 3′,3′-cGAMP free acid [Example 2], in data set [1], the “Moisture content after standing” value is given as 23.09%, the “Moisture content before standing” value was 24.71% and the “Δ Moisture content” value is listed as −1.62%. Also, the “Stability under high temperature conditions (decomposition of 3′,3′-cGAMP)” value in data set [2] is given as “not apparently decomposed”. For the same substance, the “Moisture content after storage at a humidity of 43% for 1 day” value in data set [3] turned out to be 24.7%.

For 3′,3′-cGAMP sodium salt [Example 1], in data set [1] (sodium salt), the “Moisture content after standing” value stood at 21.60% and the “Δ Moisture content” value was “+3.50%”. The “Moisture content before standing” value in data set [1] is 18.10%. Besides, the “Stability under high temperature conditions (decomposition of 3′,3′-cGAMP)” value in data set [2] is given as “not apparently decomposed”. Further, in data set [3] (immediately after drying), the “Moisture content immediately after drying” value came out at 7.9%. For the same substance, the “Moisture content after storage at a humidity of 43% for 1 day” value in data set [3] is given as 18.1%.

“3′,3′-cGAMP sodium salt [Reference Example, reference compound]”: in data set [1] (sodium salt), the “Moisture content after standing” value was 36.01%, the “Moisture content before standing” value amounted to 12.94% and the “Δ Moisture content” value is listed as “+23.07%”.

(Values after patent publication US11396524B2, “Hydrate crystal of 3′,3′-cGAMP” (Yamasa Corporation, priority 2018, dated 2022).)
